Data reported in patent US20250255981A1, “IMMUNOMODULATORY ANTIBODY-DRUG CONJUGATES” (Seagen Inc., priority 2022, published 2025).

What was measured:
[1] = tested on: THP1-Dual™ cells (IRF-Lucia luciferase reporter); experiment: THP1-Dual™ cell reporter assay; assay type: cell-based, human; conditions: free drug, 24 h (48 h elsewhere in the source)
Method: Potency of compounds and ADCs was evaluated using the THP1-Dual™ cells (Invivogen PN: thpd-nfis [also referred to as THP1 dual reporter cells]), which contain an IRF-Lucia luciferase reporter. Cells were cultured in RPMI-1640 (Gibco) with 10% heat-inactivated fetal bovine serum, Pen-Strep (100 U/mL-100 […], Gibco), HEPES (10 mM, Gibco)), sodium pyruvate (1 mM, Gibco), MEM non-essential amino acids (1×, Gibco), GlutaMAX (1×, Gibco), and beta-mercaptoethanol (55 μM, Gibco). Cells were plated in a 96-well flat bottom tissue culture-treated clear polystyrene plate (Corning Costar #3596) at ˜100,000 cells per well in 200 μL with the indicated concentration of the compound or ADC. The supernatant was harvested at 24 hours (compounds) or 48 hours (ADC) post plating for the reporter assay, or as indicated. To measure Lucia reporter signal, 10 µL of the supernatant was combined with 40 µL of QUANTI-Luc™ Luminescence assay reagent (Invivogen PN: rep-qlc1) in a 96-well clear flat bottom tissue culture-treated black polystyrene plate (Corning Costar #3603) and read on a Perkin Elmer Envision plate reader.

[2] = tested on: wild type (WT) murine bone marrow-derived macrophages; experiment: Bone marrow-derived macrophage assay, wild type; assay type: cell-based, mouse; conditions: 24 hours
Method: Potency of the compounds described herein was evaluated using mouse bone-marrow derived macrophages cultured from wild type (C57BL/6J, the Jackson Laboratory #000664) or STING-deficient (C57BL/6J-Sting1^gt/J, the Jackson Laboratory #017537) mice. Briefly, mouse bone marrow cells were cultured for 7-10 days in RPMI-1640 (Gibco) with 10% heat-inactivated fetal bovine serum, Pen-Strep (100 U/mL-100 […], Gibco), HEPES (10 mM, Gibco), sodium pyruvate (1 mM, Gibco), GlutaMAX (1×, Gibco), beta-mercaptoethanol ([…], Gibco) and 20-40 ng/mL murine M-CSF (Peprotech, #315-02). Cells were plated in a 96-well flat bottom tissue culture-treated clear polystyrene plate (Corning Costar #3596) at ˜100,000 cells per well in 200 μL with the indicated concentration of the compound. The supernatant was harvested at 24 hours and cytokines were measured using a Milliplex MAP mouse cytokine/chemokine magnetic bead panel assay kit (MCYTOMAG-70k custom 11-plex kit: MCP1, MIP1α, MIP1β, TNFα, IFNγ, IL-10, IL-12p70, IL-1β, IL-6, IP10, RANTES) and analyzed using a Luminex™ MAGPIX™ Instrument System.

Renca tumor-bearing mice = experiment: In vivo cytokine assay, Renca tumor-bearing mice; parameters: species or system mouse; conditions: for systemic pro-inflammatory cytokine (IL-6 and TNF) production: plasma; for IFNγ in plasma / IL1β in plasma / IL12p70 in plasma / IL-6 in plasma / IL-10 in plasma / IP10 in plasma / MCP-1 in plasma / MIP1α in plasma / MIP1β in plasma: 1.86 mg/kg
Method: Cytokines were measured in mouse plasma harvested at 3, 6, 24, or 48 hours after treatment with compounds or ADCs using a Milliplex MAP mouse cytokine/chemokine magnetic bead panel assay kit (MCYTOMAG-70k custom 11-plex kit: MCP1, MIP1a, MIP1(3, TNFα, IFNγ, IL-10, IL-12p70, IL-6, IL-1β, IP10, RANTES) and analyzed using a Luminex™ MAGPIX™ Instrument System. Values that were outside of the standard curve range (<3.2 or […]) were either excluded from calculation of the mean values or, when indicated, converted to […] for calculation of the mean values.
Renca cancer cells (ATCC) were cultured in RPMI-1640 (ATCC) with 10% heat-inactivated fetal bovine serum, Pen-Strep (100 U/mL-100 μg/mL), MEM non-essential amino acids (1×), sodium pyruvate (1 mM), and L-glutamine (2 mM). Renca cancer cells were implanted (2*10^6 cells in 200 μL 25% Matrigel) subcutaneously into Balb/c female mice. In some experiments, Renca tumor cells were engineered to express the indicated murine or human target antigen.
(§1) When tumor volumes reached 100 mm^3, the mice were dosed with either compounds or ADCs by intraperitoneal or intravenous injection at the indicated dosing schedule and tumor volumes were monitored twice weekly. Compounds were formulated in 40% PEG400 in saline.
(§2) A syngeneic system was used to assess the ability of the STING agonist ADCs to induce immune responses in vivo and drive an anti-tumor immune response. The Renca system is a subcutaneous, mouse renal adenocarcinoma model. Female Balb/c mice were implanted with 2×10^6 Renca cells subcutaneously in the flank on day 0. When mean tumor size of 100 mm^3 (measured by using the formula Volume (mm^3)=0.5*Length*Width^2 where length is the longer dimension) was reached mice were randomized into treatment groups of ≥5 mice per group. Animals were then treated intraperitoneally (ADCs or compounds) or intravenously (compounds) with the indicated treatment every 7 days, for 3 doses total (or as indicated). Tumor length and width and the weight of the animals was measured throughout the study and tumor volume was calculated using the formula above. Animals were followed until the tumor volume reached ˜1000 mm^3; animals were then euthanized.

Renca cancer cells = experiment: In vivo anti-tumor activity, Renca tumor model
Method: In some experiments, Renca tumor cells were engineered to express the indicated murine or human target antigen.
as §1, §2

[3] = tested on: human CD228-LL2 tumor-bearing mice; experiment: In vivo cytokine assay, human CD228-LL2 tumor-bearing mice; parameters: species or system mouse
Method: Cytokines were measured in mouse plasma harvested at 3, 6, 24, or 48 hours after treatment with compounds or ADCs using a Milliplex MAP mouse cytokine/chemokine magnetic bead panel assay kit (MCYTOMAG-70k custom 11-plex kit: MCP1, MIP1a, MIP1(3, TNFα, IFNγ, IL-10, IL-12p70, IL-6, IL-1β, IP10, RANTES) and analyzed using a Luminex™ MAGPIX™ Instrument System. Values that were outside of the standard curve range (<3.2 or >10,000 μg/mL) were either excluded from calculation of the mean values or, when indicated, converted to 3.2 or 10,000 μg/mL for calculation of the mean values.
LL2 cancer cells were engineered using lentiviral transduction to express human CD228. LL2 cells were cultured in DMEM (ATCC) with 10% heat-inactivated fetal bovine serum. Female C57BL/6 mice were implanted with 1×10^6 hCD228-LL2 tumor cells in 100 μL 25% Matrigel in RPMI 1640 medium subcutaneously. Once tumor volumes reached 100 mm^3, mice were randomized into treatment groups and dosed as indicated. […] Stock concentrations of mAb or conjugates were diluted to a desired concentration (with 20 mM His, 6% Trehalose or 0.01% Tween20 in PBS) and injected intraperitoneally (i.p.) or intravenously (i.v.) as indicated. The small molecule was formulated in 40% PEG400 in saline and injected i.v.

[4] = dose 1, 6 h, 0.08 mg/kg Q7Dx3 i.v.
[5] = dose 1, 6 h, 1.5 mg/kg Q7Dx3 i.v.
[6] = dose 2, 6 h, 0.08 mg/kg Q7Dx3 i.v.
[7] = dose 2, 6 h, 1.5 mg/kg Q7Dx3 i.v.
[8] = dose 3, 6 h, 0.08 mg/kg Q7Dx3 i.v.
[9] = dose 3, 6 h, 1.5 mg/kg Q7Dx3 i.v.

CCn1nc(C)cc1C(=O)Nc1nc2cc(C(N)=O)cc(OC)c2n1C/C=C/Cn1c(NC(=O)c2cc(C)nn2CC)nc2cc(C(N)=O)cc(OCCCNC)c21 [Compound 12a]
relative potency of free drug, Lucia reporter [1]: less potent than compound 1 and compound A
cytokine production [2]: induced cytokine production
systemic pro-inflammatory cytokine (IL-6 and TNF) production (Renca tumor-bearing mice): induced robust production of IL-6 and TNF
tumor growth / anti-tumor activity (Renca cancer cells; Renca, q7dx3): limited anti-tumor efficacy

CCn1nc(C)cc1C(=O)Nc1nc2cc(C(N)=O)cc(OC)c2n1C/C=C/Cn1c(NC(=O)c2cc(C)nn2CC)nc2cc(C(N)=O)cc(OCCCN3CCOCC3)c21.O=C(O)C(F)(F)F.O=C(O)C(F)(F)F.O=C(O)C(F)(F)F [Compound A, (E)-1-(4-(5-carbamoyl-2-(1-ethyl-3-methyl-1H-pyrazole-5-carboxamido)-7-(3-morpholinopropoxy)-1H-benzo[d]imidazol-1-yl)but-2-en-1-yl)-2-(1-ethyl-3-methyl-1H-pyrazole-5-carboxamido)-7-methoxy-1H-benzo[d]imidazole-5-carboxamide tris(2,2,2-trifluoroacetate)]
relative potency of free drug, Lucia reporter [1]: significantly more potent than (2′, 3′)-Rp,Rpc-diAMPS disodium (Compound B)
IFNg, peripheral blood (plasma), mean [3, 4]: 9.8 pg/mL
IL1b, peripheral blood (plasma), mean [3, 4]: 12.1 pg/mL
IL-6, peripheral blood (plasma), mean [3, 4]: 346.7 pg/mL
IL-10, peripheral blood (plasma), mean [3, 4]: 15.8 pg/mL
IL-12p70, peripheral blood (plasma), mean [3, 4]: 3.0 pg/mL
IP10, peripheral blood (plasma), mean [3, 4]: 7501.0 pg/mL
MCP-1, peripheral blood (plasma), mean [3, 4]: 3780.5 pg/mL
MIP1a, peripheral blood (plasma), mean [3, 4]: 107.1 pg/mL
MIP1b, peripheral blood (plasma), mean [3, 4]: 474.6 pg/mL
RANTES, peripheral blood (plasma), mean [3, 4]: 33.9 pg/mL
TNFa, peripheral blood (plasma), mean [3, 4]: 11.0 pg/mL
IFNg, peripheral blood (plasma), mean [3, 5]: 392.4 pg/mL
IL1b, peripheral blood (plasma), mean [3, 5]: 38.0 pg/mL
IL-6, peripheral blood (plasma), mean [3, 5]: 10532.0 pg/mL
IL-10, peripheral blood (plasma), mean [3, 5]: 71.5 pg/mL
IL-12p70, peripheral blood (plasma), mean [3, 5]: 32.3 pg/mL
IP10, peripheral blood (plasma), mean [3, 5]: >10000 pg/mL
MCP-1, peripheral blood (plasma), mean [3, 5]: 10000.0 pg/mL
MIP1a, peripheral blood (plasma), mean [3, 5]: 574.2 pg/mL
MIP1b, peripheral blood (plasma), mean [3, 5]: 4253.1 pg/mL
RANTES, peripheral blood (plasma), mean [3, 5]: 1705.3 pg/mL
TNFa, peripheral blood (plasma), mean [3, 5]: 95.7 pg/mL
IFNg, peripheral blood (plasma), mean [3, 6]: 11.7 pg/mL
IL1b, peripheral blood (plasma), mean [3, 6]: 26.2 pg/mL
IL-6, peripheral blood (plasma), mean [3, 6]: 936.6 pg/mL
IL-10, peripheral blood (plasma), mean [3, 6]: 9.5 pg/mL
IL-12p70, peripheral blood (plasma), mean [3, 6]: 9.7 pg/mL
IP10, peripheral blood (plasma), mean [3, 6]: 9045.3 pg/mL
MCP-1, peripheral blood (plasma), mean [3, 6]: 7114.6 pg/mL
MIP1a, peripheral blood (plasma), mean [3, 6]: 206.0 pg/mL
MIP1b, peripheral blood (plasma), mean [3, 6]: 1550.3 pg/mL
RANTES, peripheral blood (plasma), mean [3, 6]: 236.6 pg/mL
TNFa, peripheral blood (plasma), mean [3, 6]: 18.4 pg/mL
IFNg, peripheral blood (plasma), mean [3, 7]: 1550.6 pg/mL
IL1b, peripheral blood (plasma), mean [3, 7]: 57.4 pg/mL
IL-6, peripheral blood (plasma), mean [3, 7]: 22725.1 pg/mL
IL-10, peripheral blood (plasma), mean [3, 7]: 92.3 pg/mL
IL-12p70, peripheral blood (plasma), mean [3, 7]: 75.4 pg/mL
IP10, peripheral blood (plasma), mean [3, 7]: >10000 pg/mL
MCP-1, peripheral blood (plasma), mean [3, 7]: >10000 pg/mL
MIP1a, peripheral blood (plasma), mean [3, 7]: 846.6 pg/mL
MIP1b, peripheral blood (plasma), mean [3, 7]: 5235.4 pg/mL
RANTES, peripheral blood (plasma), mean [3, 7]: 1906.1 pg/mL
TNFa, peripheral blood (plasma), mean [3, 7]: 204.0 pg/mL
IFNg, peripheral blood (plasma), mean [3, 8]: 21.9 pg/mL
IL1b, peripheral blood (plasma), mean [3, 8]: 66.6 pg/mL
IL-6, peripheral blood (plasma), mean [3, 8]: 1494.7 pg/mL
IL-10, peripheral blood (plasma), mean [3, 8]: 36.3 pg/mL
IL-12p70, peripheral blood (plasma), mean [3, 8]: 220.3 pg/mL
IP10, peripheral blood (plasma), mean [3, 8]: 7718.5 pg/mL
MCP-1, peripheral blood (plasma), mean [3, 8]: 5009.1 pg/mL
MIP1a, peripheral blood (plasma), mean [3, 8]: 270.0 pg/mL
MIP1b, peripheral blood (plasma), mean [3, 8]: 1009.6 pg/mL
RANTES, peripheral blood (plasma), mean [3, 8]: 172.9 pg/mL
TNFa, peripheral blood (plasma), mean [3, 8]: 29.6 pg/mL
IFNg, peripheral blood (plasma), mean [3, 9]: 1236.8 pg/mL
IL1b, peripheral blood (plasma), mean [3, 9]: 36.8 pg/mL
IL-6, peripheral blood (plasma), mean [3, 9]: 14635.1 pg/mL
IL-10, peripheral blood (plasma), mean [3, 9]: 62.8 pg/mL
IL-12p70, peripheral blood (plasma), mean [3, 9]: 43.9 pg/mL
IP10, peripheral blood (plasma), mean [3, 9]: >10000 pg/mL
MCP-1, peripheral blood (plasma), mean [3, 9]: >10000 pg/mL
MIP1a, peripheral blood (plasma), mean [3, 9]: 743.4 pg/mL
MIP1b, peripheral blood (plasma), mean [3, 9]: 4517.1 pg/mL
RANTES, peripheral blood (plasma), mean [3, 9]: 2533.7 pg/mL
TNFa, peripheral blood (plasma), mean [3, 9]: 195.3 pg/mL
IFNγ in plasma (Renca tumor-bearing mice; 3 h after treatment): 0.3 pg/mL
IL1β in plasma (Renca tumor-bearing mice; 3 h after treatment): 1.5 pg/mL
IL12p70 in plasma (Renca tumor-bearing mice; 3 h after treatment): 0.2 pg/mL
IL-6 in plasma (Renca tumor-bearing mice; 3 h after treatment): 3550 pg/mL
IL-10 in plasma (Renca tumor-bearing mice; 3 h after treatment): 0.5 pg/mL
IP10 in plasma (Renca tumor-bearing mice; 3 h after treatment): 4780 pg/mL
MCP-1 in plasma (Renca tumor-bearing mice; 3 h after treatment): 14500 pg/mL
MIP1α in plasma (Renca tumor-bearing mice; 3 h after treatment): 1300 pg/mL
MIP1β in plasma (Renca tumor-bearing mice; 3 h after treatment): 6370 pg/mL
IFNγ in plasma (Renca tumor-bearing mice; 6 h after treatment): 71.8 pg/mL
IL1β in plasma (Renca tumor-bearing mice; 6 h after treatment): 0.6 pg/mL
IL12p70 in plasma (Renca tumor-bearing mice; 6 h after treatment): 0.2 pg/mL
IL-6 in plasma (Renca tumor-bearing mice; 6 h after treatment): 732 pg/mL
IL-10 in plasma (Renca tumor-bearing mice; 6 h after treatment): < 3.2 pg/mL
IP10 in plasma (Renca tumor-bearing mice; 6 h after treatment): 4980 pg/mL
MCP-1 in plasma (Renca tumor-bearing mice; 6 h after treatment): 10800 pg/mL
MIP1α in plasma (Renca tumor-bearing mice; 6 h after treatment): 209 pg/mL
MIP1β in plasma (Renca tumor-bearing mice; 6 h after treatment): 2150 pg/mL
IFNγ in plasma (Renca tumor-bearing mice; 24 h after treatment): < 3.2 pg/mL
IL1β in plasma (Renca tumor-bearing mice; 24 h after treatment): 0.3 pg/mL
IL12p70 in plasma (Renca tumor-bearing mice; 24 h after treatment): < 3.2 pg/mL
IL-6 in plasma (Renca tumor-bearing mice; 24 h after treatment): 16.4 pg/mL
IL-10 in plasma (Renca tumor-bearing mice; 24 h after treatment): < 3.2 pg/mL
IP10 in plasma (Renca tumor-bearing mice; 24 h after treatment): 890 pg/mL
MCP-1 in plasma (Renca tumor-bearing mice; 24 h after treatment): 540 pg/mL
MIP1α in plasma (Renca tumor-bearing mice; 24 h after treatment): 41.7 pg/mL
MIP1β in plasma (Renca tumor-bearing mice; 24 h after treatment): 35.5 pg/mL
systemic pro-inflammatory cytokine (IL-6 and TNF) production (Renca tumor-bearing mice): induced robust production of IL-6 and TNF
tolerability (Renca cancer cells; Renca tumor-bearing mice): less well tolerated
average weight loss (Renca cancer cells; after the 2nd dose): 6.2%
